Source: ChEMBL document CHEMBL4339253, “Anthraquinone-Based Specialized Metabolites from Rhizomes of Bulbine natalensis” (J Nat Prod, 2019)
pIC50: −log10 of the molar value. Active and inactive are the calls of the source. The rule behind the calls is not given here.

Experiments:
Assay type in all cases: functional, organism-based
[1] = system: Mycobacterium intracellulare; experiment: Antimicrobial activity against Mycobacterium intracellulare assessed as inhibition of microbial growth up to 20 ug/mL
[2] = system: Candida albicans; experiment: Antimicrobial activity against Candida albicans ATCC 90028 assessed as inhibition of microbial growth up to 20 ug/mL by CLSI based method
[3] = system: Aspergillus fumigatus; experiment: Antimicrobial activity against Aspergillus fumigatus ATCC 90906 assessed as inhibition of microbial growth up to 20 ug/mL by CLSI based method
[4] = system: Cryptococcus neoformans; experiment: Antimicrobial activity against Cryptococcus neoformans ATCC 90113 assessed as inhibition of microbial growth up to 20 ug/mL by CLSI based method
[5] = system: Staphylococcus aureus; experiment: Antimicrobial activity against methicillin-resistant Staphylococcus aureus ATCC 43300 assessed as inhibition of microbial growth up to 20 ug/mL by CLSI based method
[6] = system: Escherichia coli; experiment: Antimicrobial activity against Escherichia coli ATCC 35218 assessed as inhibition of microbial growth up to 20 ug/mL by CLSI based method
[7] = system: Pseudomonas aeruginosa; experiment: Antimicrobial activity against Pseudomonas aeruginosa ATCC 27853 assessed as inhibition of microbial growth up to 20 ug/mL by CLSI based method
[8] = system: Candida albicans; experiment: Antimicrobial activity against Candida albicans ATCC 90028 assessed as inhibition of microbial growth by CLSI based method
[9] = system: Aspergillus fumigatus; experiment: Antimicrobial activity against Aspergillus fumigatus ATCC 90906 assessed as inhibition of microbial growth by CLSI based method
[10] = system: Cryptococcus neoformans; experiment: Antimicrobial activity against Cryptococcus neoformans ATCC 90113 assessed as inhibition of microbial growth by CLSI based method
[11] = system: Staphylococcus aureus; experiment: Antimicrobial activity against methicillin-resistant Staphylococcus aureus ATCC 43300 assessed as inhibition of microbial growth by CLSI based method
[12] = system: Escherichia coli; experiment: Antimicrobial activity against Escherichia coli ATCC 35218 assessed as inhibition of microbial growth by CLSI based method
[13] = system: Pseudomonas aeruginosa; experiment: Antimicrobial activity against Pseudomonas aeruginosa ATCC 27853 assessed as inhibition of microbial growth by CLSI based method

| SMILES | growth inhibition (GI) [1] | growth inhibition (GI) [2] | growth inhibition (GI) [3] | growth inhibition (GI) [4] | growth inhibition (GI) [5] | growth inhibition (GI) [6] | growth inhibition (GI) [7] | pIC50 [8] | pIC50 [9] | pIC50 [10] | pIC50 [11] | pIC50 [12] | pIC50 [13] |
| --- | --- | --- | --- | --- | --- | --- | --- | --- | --- | --- | --- | --- | --- |
| COc1cccc2cc3c(c(O)c12)[C@@H](C)OC3 | inactive | inactive | inactive | inactive | inactive | inactive | inactive |  |  |  |  |  |  |
| C[C@@H](O)[C@H]1C(=O)N2C(C(=O)O)=C(S[C@@H]3CN[C@H](C(=O)N(C)C)C3)[C@H](C)[C@H]12 [MEROPENEM] |  |  |  |  |  |  |  | < 3.52 | < 3.52 | < 3.52 | 5.00 | 8.00 | 7.70 |
| COc1cc(OC)c(C2=C(C)C=C(O)C3C(=O)c4c(O)cccc4C(=O)C23)c(O)c1C(C)=O (centres undefined) | inactive | inactive | inactive | inactive | inactive | inactive | inactive |  |  |  |  |  |  |
| COc1cc(OC)c(C2=C(C)C=C(O)C3C(=O)c4c(O[C@@H]5O[C@H](CO[C@@H]6O[C@H](CO)[C@@H](O)[C@H](O)[C@H]6O)[C@@H](O)[C@H](O)[C@H]5O)cccc4C(=O)C23)c(O)c1C(C)=O (some centres undefined) | inactive | inactive | inactive | inactive | inactive | inactive | inactive |  |  |  |  |  |  |
| Cc1cc(O)c2c(c1)C(O)([C@@H]1O[C@@H](C)[C@H](O)[C@@H](O)[C@H]1O)c1ccc([C@H]3c4cccc(O)c4C(=O)c4c(O)cc(C)c(O[C@@H]5OC[C@@H](O)[C@H](O)[C@H]5O)c43)c(O)c1C2=O (some centres undefined) | inactive | inactive | inactive | inactive | inactive | inactive | inactive |  |  |  |  |  |  |
| C[C@@H]1[C@H](O)[C@@H](C)/C=C/C=C/C=C/C=C/C=C/C=C/C=C/[C@H](O[C@@H]2O[C@H](C)[C@@H](O)[C@H](N)[C@@H]2O)C[C@@H]2O[C@](O)(C[C@@H](O)C[C@@H](O)[C@H](O)CC[C@@H](O)C[C@@H](O)CC(=O)O[C@H]1C)C[C@H](O)[C@H]2C(=O)O [AMPHOTERICIN B] |  |  |  |  |  |  |  | > 7.00 | 6.00 | 6.70 | < 4.00 |  |  |
| OC(Cn1cncn1)(Cn1cncn1)c1ccc(F)cc1F [FLUCONAZOLE] |  |  |  |  |  |  |  |  | < 3.52 | 5.30 | < 3.52 | < 6.52 | < 6.52 |
| Cc1cc(O)c2c(c1)C(O)([C@@H]1O[C@@H](C)[C@H](O)[C@@H](O)[C@H]1O)c1ccc([C@H]3c4cccc(O)c4C(=O)c4c(O)cc(C)c(O)c43)c(O)c1C2=O (some centres undefined) |  |  |  |  |  |  |  | < 4.52 | < 4.52 | < 4.52 | 4.70 |  |  |
| COc1cc(O)c2c(c1)C(=O)c1cc(O[C@@H]3O[C@H](CO)[C@@H](O)[C@H](O)[C@H]3O)c(C(=O)O)c(C)c1C2=O | inactive | inactive | inactive | inactive | inactive | inactive | inactive |  |  |  |  |  |  |
| CC1=CC(O)=C2C(=O)c3c(O)cccc3C(c3ccc4c(c3O)C(=O)c3c(O)cc(C)cc3C4=O)=C2C1=O | inactive | inactive | inactive | inactive | inactive | inactive | inactive |  |  |  |  |  |  |
| COc1cc(OC)c(C2=C3C(=O)C(C)=CC(O)=C3C(=O)c3c(O)cccc32)c(O)c1C(C)=O | inactive | inactive | inactive | inactive | inactive | inactive | inactive |  |  |  |  |  |  |
| CC1=CC(O)=C2C(=O)c3c(O[C@@H]4O[C@H](CO)[C@@H](O)[C@H](O)[C@H]4O)cccc3C(c3ccc4c(c3O)C(=O)c3c(O)cc(C)cc3C4(O)[C@@H]3O[C@@H](C)[C@H](O)[C@@H](O)[C@H]3O)=C2C1=O (some centres undefined) | inactive | inactive | inactive | inactive | inactive | inactive | inactive |  |  |  |  |  |  |
| CN[C@H](CC(C)C)C(=O)N[C@H]1C(=O)N[C@@H](CC(N)=O)C(=O)N[C@H]2C(=O)N[C@H]3C(=O)N[C@H](C(=O)N[C@H](C(=O)O)c4cc(O)cc(O)c4-c4cc3ccc4O)[C@H](O)c3ccc(c(Cl)c3)Oc3cc2cc(c3O[C@@H]2O[C@H](CO)[C@@H](O)[C@H](O)[C@H]2O[C@H]2C[C@](C)(N)[C@H](O)[C@H](C)O2)Oc2ccc(cc2Cl)[C@H]1O [VANCOMYCIN] |  |  |  |  |  |  |  | < 4.15 | < 4.15 | < 4.15 | 6.40 | 7.40 | < 7.15 |
| COc1cccc(OC)c1C(=O)N[C@@H]1C(=O)N2[C@@H]1SC(C)(C)[C@@H]2C(=O)O [METHICILLIN] |  |  |  |  |  |  |  | < 3.52 | < 3.52 | < 3.52 | 4.52 |  | 6.52 |
| COc1cc(O)c(C(C)=O)c(O)c1C1=C(C)C=C(O)C2C(=O)c3c(O)cccc3C(=O)C12 (centres undefined) | inactive | inactive | inactive | inactive | inactive | inactive | inactive |  |  |  |  |  |  |
| CO/N=C(\C(=O)N[C@@H]1C(=O)N2C(C(=O)O)=C(COC(C)=O)CS[C@H]12)c1csc(N)n1 [CEFOTAXIME] |  |  |  |  |  |  |  | < 3.70 | < 3.70 | < 3.70 | 4.52 | 7.00 | 7.52 |
